pEC50: −log10 of the molar value.
Legend:
[1] = system: NRF2; assay: NRF2 +/-GSH activation assay (DiscoverX PathHunter NRF2 translocation kit, U2OS cells); type: cell-based; settings: Homo sapiens, GSH condition not stated in Table 5; for Emax: U2OS, normalised to dimethyl fumarate 'High' control, read-out: NRF2 activation Emax; for pEC50: U2OS PathHunter cells, 6 hours, read-out: NRF2 activation EC50
Method in brief: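 Percent activation, normalised to dimethyl fumarate (high) and vehicle (low) controls, was fitted for EC50 after 6 hours treatment of U2OS PathHunter cells. In the +GSH arm compounds were first pre-incubated 30 minutes in 6 mM working GSH; NRF2 translocation read by chemiluminescent complementation.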

[2] = Hepatocyte stability assay (human); type: in vitro ADME; settings: cryopreserved hepatocytes, 10 μM compound, 0.5×10^6 cells/mL, 60 minutes, read-out: T½
Method in brief: (§1)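 Cryopreserved hepatocytes (viability >70%), 0.5×10^6 cells/mL in Leibovitz buffer, incubated at 37 °C with 10 μM compound (0.1% DMSO), duplicates; buffer-only incubations as negative control. Samples at 0-60 min quenched in acetonitrile, parent measured by LC-MS/MS; half-life and Clint (μL min^−1 10^−6 cells) from ln % remaining versus time slope.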

[3] = system: hepatocytes; assay: Hepatocyte stability assay (human); type: in vitro ADME; settings: 10 μM compound, 0.5×10^6 cells/mL, 60 minutes
Method in brief: as §1

[4] = Mouse pharmacokinetic study, intravenous dosing; type: in vivo; settings: male, C57BL/6, mouse, iv, plasma, 10 mg/kg i.v., read-out: Parent compound concentration following intravenous administration
Method in brief: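 Plasma drug levels were quantified by LC-MS/MS from K2EDTA facial-vein semi-serial bleeds (N=3 per time point) in male C57BL/6 mice aged 6-8 weeks. Gavage dosing used 100 mg/kg (5% DMSO/HPMC-Tween vehicle, 5 min–24 h); tail-vein dosing used 10 mg/kg (10% DMSO/HP-β-CD vehicle, 3 min–8 h).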

| SMILES | Emax [1] [%] | pEC50 [1] | half-life at 10 μM [2] [min] | CIint (μL min^−1 10^−6 cells) [3] [μL min^−1 10^−6 cells] | concentration at 0.05 h [4] [ng/mL] | concentration at 0.133 h [4] [ng/mL] | concentration at 0.25 h [4] [ng/mL] | concentration at 0.5 h [4] [ng/mL] | concentration at 1 h [4] [ng/mL] | concentration at 2 h [4] [ng/mL] | concentration at 4 h [4] [ng/mL] | concentration at 6 h [4] [ng/mL] | concentration at 8 h [4] [ng/mL] |
| --- | --- | --- | --- | --- | --- | --- | --- | --- | --- | --- | --- | --- | --- |
| C=C(CC(=O)O[C@@H](C)CCCCCC)C(=O)OCc1nn[nH]n1 [Example 164, (S)-1-(2H-tetrazol-5-yl)methyl 4-octan-2-yl 2-methylenesuccinate] | 168 | 5.31 | 33 | 42 | 6690 | 1250 | 534 | 211 | 18 | < 4 | < 4 | < 4 | < 4 |
| C=C(CC(=O)O[C@@H](CCCCCC)C(F)(F)F)C(=O)OCC(=O)O [Example 182, (S)-2-((2-methylene-4-oxo-4-((1,1,1-trifluorooctan-2-yl)oxy)butanoyl)oxy)acetic acid] | 188 | 5.26 | 28 | 60 | 40800 | 17900 | 6740 | 2890 | 642 | 88 | 20 | 6 | < 4 |
| C=C(CC(=O)OC(C)(C)CCCCCC)C(=O)OCC(=O)O [Example 192, 2-((2-methylene-4-((2-methyloctan-2-yl)oxy)-4-oxobutanoyl)oxy)acetic acid] | 194 | 4.93 | 54 | 32 | 36600 | 21400 | 11300 | 2910 | 400 | 86 | 26 | < 4 | < 4 |

Reference: US12390437B2, “Itaconic acid derivatives and uses thereof intreating an inflammatory disease or a disease associated with an undesirable immune response” (Sitryx Therapeutics Limited, priority 2019, dated 2025)
